This is an account of results in US8895733B2 (Novartis AG, priority 2010, dated 2014).

For one test, the target named is T1, Nav 1.7 (Homo sapiens, UniProt Q15858).
T1 construct: expressed in transfected cells
T1 sequence (Q15858 whole entry): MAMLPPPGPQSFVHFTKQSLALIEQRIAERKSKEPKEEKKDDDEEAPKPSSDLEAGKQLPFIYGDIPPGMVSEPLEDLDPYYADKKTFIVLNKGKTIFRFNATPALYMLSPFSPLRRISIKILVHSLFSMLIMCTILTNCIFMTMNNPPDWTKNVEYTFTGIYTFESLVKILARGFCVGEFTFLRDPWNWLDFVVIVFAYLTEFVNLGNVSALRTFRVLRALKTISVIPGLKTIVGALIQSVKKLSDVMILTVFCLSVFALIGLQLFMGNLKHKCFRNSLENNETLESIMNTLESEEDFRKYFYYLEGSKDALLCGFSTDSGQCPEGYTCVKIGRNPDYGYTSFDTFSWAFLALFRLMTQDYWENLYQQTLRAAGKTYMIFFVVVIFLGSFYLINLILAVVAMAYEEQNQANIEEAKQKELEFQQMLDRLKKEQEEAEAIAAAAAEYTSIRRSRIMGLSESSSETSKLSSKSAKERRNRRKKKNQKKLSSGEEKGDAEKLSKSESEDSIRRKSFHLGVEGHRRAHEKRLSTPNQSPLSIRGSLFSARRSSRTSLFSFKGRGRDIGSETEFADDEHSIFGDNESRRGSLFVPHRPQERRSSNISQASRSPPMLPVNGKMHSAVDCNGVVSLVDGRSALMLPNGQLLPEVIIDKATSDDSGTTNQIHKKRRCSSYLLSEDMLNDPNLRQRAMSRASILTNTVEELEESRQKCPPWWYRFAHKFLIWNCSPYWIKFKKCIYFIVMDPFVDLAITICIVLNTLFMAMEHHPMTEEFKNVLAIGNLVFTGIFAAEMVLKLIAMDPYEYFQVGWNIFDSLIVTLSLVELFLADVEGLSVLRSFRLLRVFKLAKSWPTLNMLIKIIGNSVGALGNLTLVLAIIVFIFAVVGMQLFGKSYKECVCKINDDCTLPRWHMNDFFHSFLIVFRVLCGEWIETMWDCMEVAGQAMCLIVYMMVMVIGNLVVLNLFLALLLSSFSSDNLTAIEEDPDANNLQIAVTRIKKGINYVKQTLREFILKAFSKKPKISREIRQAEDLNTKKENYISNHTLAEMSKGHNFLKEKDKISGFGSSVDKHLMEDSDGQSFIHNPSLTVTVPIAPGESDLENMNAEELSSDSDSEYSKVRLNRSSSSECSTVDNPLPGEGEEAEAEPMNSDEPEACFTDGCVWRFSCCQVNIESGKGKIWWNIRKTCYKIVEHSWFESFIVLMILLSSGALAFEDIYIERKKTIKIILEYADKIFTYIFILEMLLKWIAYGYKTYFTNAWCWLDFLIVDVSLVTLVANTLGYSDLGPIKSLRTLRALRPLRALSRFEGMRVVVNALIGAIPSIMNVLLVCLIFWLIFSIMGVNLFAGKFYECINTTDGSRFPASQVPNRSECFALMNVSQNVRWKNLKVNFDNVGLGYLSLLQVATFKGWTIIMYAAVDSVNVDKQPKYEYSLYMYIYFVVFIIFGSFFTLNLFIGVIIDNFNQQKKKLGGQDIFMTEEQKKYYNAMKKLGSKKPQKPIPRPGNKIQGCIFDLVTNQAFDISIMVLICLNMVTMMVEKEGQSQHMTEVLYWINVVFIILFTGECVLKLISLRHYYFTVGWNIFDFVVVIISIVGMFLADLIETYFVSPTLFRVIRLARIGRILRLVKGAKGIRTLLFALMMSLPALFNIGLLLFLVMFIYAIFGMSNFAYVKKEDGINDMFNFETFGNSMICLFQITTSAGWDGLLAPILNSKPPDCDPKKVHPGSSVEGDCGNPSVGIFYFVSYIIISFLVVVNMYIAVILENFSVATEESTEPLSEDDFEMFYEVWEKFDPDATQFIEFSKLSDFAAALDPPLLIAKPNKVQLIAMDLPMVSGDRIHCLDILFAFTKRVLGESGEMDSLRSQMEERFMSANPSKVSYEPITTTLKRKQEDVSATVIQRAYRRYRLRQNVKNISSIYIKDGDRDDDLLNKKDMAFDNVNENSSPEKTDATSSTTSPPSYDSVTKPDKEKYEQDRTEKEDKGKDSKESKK
Kind of test: Whole-cell voltage clamp electrophysiology, automated patch clamp (marker c in Table of Examples). It counts as cell-based. Particulars: marker c = Automated patch clamp data; read-out: Nav 1.7 activity. The method in brief:
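A voltage protocol weighted toward inactivated-state block was used to test compounds on stably expressing cells, with pulses from −65 mV holding to −10 mV test and −100 mV. Currents came from whole-cell automated patch-clamp recordings, either IonWorks Quattro or other automated instruments, usually in perforated-patch mode.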
Background: Patch clamp records ionic current or voltage across a cell membrane.
Consider `CN(c1ccccc1)c1nc(N)nc(-c2noc(N3C[C@@H]4[C@@H](COCC5CC5)[C@@H]4C3)n2)n1` [Example 395, 6-{5-[6-[(cyclopropylmethoxy)methyl]-3-azabicyclo[3.1.0]hexan-3-yl]-1,2,4-oxadiazol-3-yl}-2-N-methyl-2-N-phenyl-1,3,5-triazine-2,4-diamine], for which the IC50 amounted to 2660 nM.
Regarding `CN(c1ccccc1)c1nc(N)nc(-c2noc([C@@H]3CCCN3C(=O)OC(C)(C)C)n2)n1` [Example 440, tert-butyl (2S)-2-(3-{4-amino-6-[methyl(phenyl)amino]-1,3,5-triazin-2-yl}-1,2,4-oxadiazol-5-yl)pyrrolidine-1-carboxylate], the IC50 was found to be 1300 nM.
Take `COc1ccccc1-c1nc(-c2nc(N)nc(Nc3cccc(F)c3)n2)no1` [Example 248, 2-N-(3-fluorophenyl)-6-[5-(2-methoxyphenyl)-1,2,4-oxadiazol-3-yl]-1,3,5-triazine-2,4-diamine]: the IC50 worked out at 376 nM.
Same read-out and setting: then `Nc1nc(Nc2ccccc2)nc(-c2noc(N3C[C@@H]4[C@@H](COC5CCCC5)[C@@H]4C3)n2)n1` [Example 400, 6-{5-[6-[(cyclopentyloxy)methyl]-3-azabicyclo[3.1.0]hexan-3-yl]-1,2,4-oxadiazol-3-yl}-2-N-phenyl-1,3,5-triazine-2,4-diamine], with 292 nM.
`CN(c1ccccc1)c1nc(N)nc(-c2noc(-c3ccc(OCC(F)(F)F)cn3)n2)n1` [Example 340, 2-N-methyl-2-N-phenyl-6-{5-[5-(2,2,2-trifluoroethoxy)pyridin-2-yl]-1,2,4-oxadiazol-3-yl}-1,3,5-triazine-2,4-diamine]: the IC50 was 818 nM.
Same read-out and setting: the result for `CN(c1ccccc1)c1nc(N)nc(-c2noc(C3CCN(S(=O)(=O)C4CC4)CC3)n2)n1` [Example 506, 6-{5-[1-(cyclopropanesulfonyl)piperidin-4-yl]-1,2,4-oxadiazol-3-yl}-2-N-methyl-2-N-phenyl-1,3,5-triazine-2,4-diamine] reads 7100 nM; that for `COC(=O)c1ccc(-c2nc(-c3nc(N)nc(Nc4ccccc4)n3)no2)cn1` [Example 297], 210 nM.
The same measure, in the same setting: then `CC(C)S(=O)(=O)N1CCC(c2nc(-c3nc(N)nc(N(C)c4ccccc4)n3)no2)C1` (stereo not shown) [Example 201, 2-N-methyl-2-N-phenyl-6-{5-[1-(propane-2-sulfonyl)pyrrolidin-3-yl]-1,2,4-oxadiazol-3-yl}-1,3,5-triazine-2,4-diamine], with 3290 nM.
On the same count and under the same terms, the result for `CCOc1cccnc1-c1nc(-c2nc(N)nc(N(C)c3ccccc3)n2)no1` [Example 480, 6-[5-(3-ethoxypyridin-2-yl)-1,2,4-oxadiazol-3-yl]-2-N-methyl-2-N-phenyl-1,3,5-triazine-2,4-diamine] reads 313 nM; that for `CN1CCC(Oc2ccc(-c3nc(-c4nc(N)nc(N(C)c5ccccc5)n4)no3)cn2)C1` (stereo not shown) [Example 364, 2-N-methyl-6-(5-{6-[(1-methylpyrrolidin-3-yl)oxy]pyridin-3-yl}-1,2,4-oxadiazol-3-yl)-2-N-phenyl-1,3,5-triazine-2,4-diamine], 1620 nM; that for `CN(c1ccccc1)c1nc(N)nc(-c2noc(-c3ncccc3Cl)n2)n1` [Example 273, 6-[5-(3-chloropyridin-2-yl)-1,2,4-oxadiazol-3-yl]-2-N-methyl-2-N-phenyl-1,3,5-triazine-2,4-diamine], 253 nM.
For the compound `Nc1nc(Nc2ccccc2)nc(-c2noc(-c3ccc(COCC(F)(F)F)cn3)n2)n1` [Example 350, 2-N-phenyl-6-(5-{5-[(2,2,2-trifluoroethoxy)methyl]pyridin-2-yl}-1,2,4-oxadiazol-3-yl)-1,3,5-triazine-2,4-diamine], the IC50 amounted to 4 nM.
Still for that read-out and setting: then `CN(c1ccccc1)c1nc(N)nc(-c2noc(C(=O)NCc3ccc(OCC(F)(F)F)nc3)n2)n1` [Example 259, 3-{4-amino-6-[methyl(phenyl)amino]-1,3,5-triazin-2-yl}-N-{[6-(2,2,2-trifluoroethoxy)pyridin-3-yl]methyl}-1,2,4-oxadiazole-5-carboxamide], with 422 nM; and `CCOc1ncccc1-c1nc(-c2nc(N)nc(N(C)c3ccccc3)n2)no1` [Example 419, 6-[5-(2-ethoxypyridin-3-yl)-1,2,4-oxadiazol-3-yl]-2-N-methyl-2-N-phenyl-1,3,5-triazine-2,4-diamine], with 1450 nM.
Same read-out and setting: the result for `CCC(C)S(=O)(=O)N1CCC(c2nc(-c3nc(N)nc(Nc4ccccc4)n3)no2)CC1` (stereo not shown) [Example 514, 6-{5-[1-(butane-2-sulfonyl)piperidin-4-yl]-1,2,4-oxadiazol-3-yl}-2-N-phenyl-1,3,5-triazine-2,4-diamine] reads 1730 nM; that for `CN(c1ccccc1)c1nc(N)nc(-c2noc(-c3ccnnc3)n2)n1` [Example 469, 2-N-methyl-2-N-phenyl-6-[5-(pyridazin-4-yl)-1,2,4-oxadiazol-3-yl]-1,3,5-triazine-2,4-diamine], 2920 nM; that for `CN(c1ccccc1)c1nc(N)nc(-c2noc(C3CCC(NC(=O)CC4CC4)CC3)n2)n1` (stereo not shown) [Example 426, N-[4-(3-{4-amino-6-[methyl(phenyl)amino]-1,3,5-triazin-2-yl}-1,2,4-oxadiazol-5-yl)cyclohexyl]-2-cyclopropylacetamide], 6680 nM.

The test is the same for the next values; noted with them: marker c: Automated patch clamp data; read-out: Nav 1.7 activity.
For `CN(c1ccccc1)c1nc(N)nc(-c2noc(C3CCCO3)n2)n1` (stereo not shown) [Example 66, N-Methyl-N-phenyl-6-[5-(tetrahydro-furan-2-yl)-[1,2,4]oxadiazol-3-yl]-[1,3,5]triazine-2,4-diamine], the IC50 amounted to 1680 nM.
Still for that read-out and setting: then `CN(c1ccccc1)c1nc(N)nc(-c2noc(C(=O)N3CC(Oc4ccc(F)cc4)C3)n2)n1` [Example 137], with 564 nM; and `Cc1ccc(-c2nc(-c3nc(N)nc(N(C)c4ccccc4)n3)no2)s1` [Example 129, N-Methyl-6-[5-(5-methyl-thiophen-2-yl)-[1,2,4]oxadiazol-3-yl]-N-phenyl-[1,3,5]triazine-2,4-diamine], with 2540 nM; and `CN(c1ccccc1)c1nc(N)nc(-c2noc(-c3cccnc3)n2)n1` [Example 115, N-Methyl-N-phenyl-6-(5-pyridin-3-yl-[1,2,4]oxadiazol-3-yl)-[1,3,5]triazine-2,4-diamine], with 1320 nM.
On the same count and under the same terms, the result for `CN(c1ccccc1)c1nc(N)nc(-c2noc(-c3ccc(N)nc3)n2)n1` [Example 55, 6-[5-(6-Amino-pyridin-3-yl)-[1,2,4]oxadiazol-3-yl]-N-methyl-N-phenyl-[1,3,5]triazine-2,4-diamine] reads 4910 nM; that for `COC(=O)c1cccc(Nc2nc(N)nc(-c3noc(-c4ccc(OCC(F)(F)F)nc4)n3)n2)c1` [Example 182, methyl 3-[(4-amino-6-{5-[6-(2,2,2-trifluoroethoxy)pyridin-3-yl]-1,2,4-oxadiazol-3-yl}-1,3,5-triazin-2-yl)amino]benzoate], 8690 nM; that for `COc1ccc(-c2nc(-c3nc(N)nc(N(C)c4ccccc4)n3)no2)cn1` [Example 47, 6-[5-(6-Methoxy-pyridin-3-yl)-[1,2,4]oxadiazol-3-yl]-N-methyl-N-phenyl-[1,3,5]triazine-2,4-diamine], 1920 nM.
Still for that read-out and setting: then `Nc1nc(Nc2cccc(F)c2)nc(-c2noc(-c3ccc(OCC4CC4)nc3)n2)n1` [Example 136, 6-{5-[6-(cyclopropylmethoxy)pyridin-3-yl]-1,2,4-oxadiazol-3-yl}-2-N-(3-fluorophenyl)-1,3,5-triazine-2,4-diamine], with 65 nM.
